Patent US20210395210A1, “INHIBITION OF BACTERIAL CHAPERONIN SYSTEMS” (THE TRUSTEES OF INDIANA UNIVERSITY, priority 2018, published 2021)
pIC50: −log10 of the molar value.

Tests used:
E. coli GroEL/ES [1] = target: T1, E. coli GroEL/ES (Escherichia coli, UniProt P0A6F5); assay: GroEL/ES-mediated dRho refolding assay; assay type: biochemical; conditions: for IC50 / log(IC50) GroEL/ES-dRho Refolding: log of IC50 (μM scale), with standard deviation; for IC50: read-out: log(IC50) GroEL/ES-dRho Refolding (converted)
T1 construct: made in house; host or cells: GroEL in E. coli DH5α; GroES in E. coli BL21 (DE3)
Description: Reagent preparation: For this assay, five primary reagent stocks were prepared: 1) GroEUES-dRho binary complex stock; 2) ATP initiation stock; 3) thiocyanate enzymatic assay stock; 4) formaldehyde quench stock; 5) ferric nitrate reporter stock. Denatured rhodanese (dRho) was prepared by 3-fold dilution of rhodanese (Roche product #R1756, diluted to 10 mg/mL with H2O) with denaturant buffer (12 M Urea, 50 mM Tris-HCl, pH 7.4, and 10 mM DTT). Rhodanese was completely denatured by incubating at room temperature for 45 min. The binary complex solution was prepared by slowly adding the dRho stock to a stirring stock of concentrated GroEL in modified folding buffer (50 mM Tris-HCl, pH 7.4, 50 mM KCl, 10 mM MgCl2, 5 mM Na2S2O3, and 1 mM DTT). The solution was centrifuged at 16,000×g for 5 minutes, and the supernatant was collected and added to a solution of GroES in modified folding buffer to give final protein concentrations of 100 nM GroEL, 120 nM GroES, and 80 nM dRho. The binary complex stock was prepared immediately prior to use. For the ATP initiation stock, ATP solid was diluted into modified folding buffer to a final concentration of 2.0 mM. The thiocyanate enzymatic assay stock was prepared to contain 70 mM KH2PO4, 80 mM KCN, and 80 mM Na2S2O3 in water. The formaldehyde quench solution contained 30% formaldehyde in water. The ferric nitrate reporter stock contained 8.5% w/v Fe(NO3)3 and 11.3% v/v HNO3 in water.
Assay Protocol: First, 10 μL aliquots of the GroEL/ES-dRho complex stock were dispensed into clear, 384-well polystyrene plates. […] The chaperonin-mediated refolding cycle was initiated by addition of 10 μL of ATP stock (reagent concentrations during refolding cycle: 50 nM GroEL, 60 nM GroES, 40 nM dRho, 1 mM ATP, and compounds of 250 μM to 114 nM, 3-fold dilution series). After incubating for 45 minutes at 37° C. for the refolding cycle, 30 μL of the thiocyanate enzymatic assay stock was added and incubated for 60 min at R.T. for the refolded rhodenase enzymatic reporter reaction. The reporter reaction was quenched by adding 10 μL of the formaldehyde quench stock, and then 40 μL of the ferric nitrate reporter stock was added to quantify the amount of thiocyanate produced during the enzymatic reporter reaction, which is proportional to the amount of dRho refolded by GroEL/ES. After incubating at R.T. for 15 min, the absorbance by Fe(SCN)3 was measured at 460 nm using a Molecular Devices SpectraMax Plus384 microplate reader. A second set of baseline control plates were prepared analogously, but without GroEL/ES-dRho protein binary solution, to correct for possible interference from compound absorbance or turbidity. […] Results presented represent the averages of IC50 values obtained from at least quadriplicate (duplicate of duplicate) replicates.
(§1) After generating the compound library, we next employed a series of well-established biochemical assays to evaluate compound inhibitory effects against the GroEUES chaperonin system (See FIG. 6 and FIG. 7). We used E. coli GroEUES as the surrogate chaperonin system for refolding of the reporter enzymes malate dehydrogenase (MDH) and rhodanese (Rho). Briefly, binary complexes are formed between GroEL and denatured MDH or Rho, which are then refolded to their native states upon addition of ATP and the GroES co-chaperonin. Enzymatic activities of refolded native MDH or Rho act as coupled reporters of GroEUES refolding functions since in the presence of chaperonin inhibitors, no functional reporter enzymes are generated.

E. coli GroEL/ES [2] = target: T1, E. coli GroEL/ES; assay: GroEL/ES-mediated dMDH refolding assay; assay type: biochemical; conditions: for log(IC50) GroEL/ES-dMDH Refolding: log of IC50 (μM scale), with standard deviation; for inhibition in the GroEL/ES-mediated refolding assays (in words): dMDH and dRho refolding assays
Description: Reagent preparation: For these assays, four primary reagent stocks were prepared: 1) GroEUES-dMDH or HSP60/10-dMDH binary complex stock; 2) ATP initiation stock; 3) EDTA quench stock; 4) MDH enzymatic assay stock. Denatured MDH (dMDH) was prepared by 2-fold dilution of MDH (5 mg/ml, soluble pig heart MDH from Roche, product #10127248001) with denaturant buffer (7 M guanidine-HCl, 200 mM Tris, pH 7.4, and 50 mM DTT). MDH was completely denatured by incubating at room temperature for 45 min. The binary complex solutions were prepared by slowly adding the dMDH stock to a stirring stock with GroEL (or HSP60) in folding buffer (50 mM Tris-HCl, pH 7.4, 50 mM KCl, 10 mM MgCl2, and 1 mM DTT), followed by addition of GroES (or HSP10). The binary complex stocks were prepared immediately prior to dispensing into the assay plates and had final protein concentrations of 83.3 nM GroEL (Mr 800 kDa) or HSP60 (Mr 400 kDa), 100 nM GroES or HSP10 (Mr 70 kDa), and 20 nM dMDH in folding buffer. For the ATP initiation stock, ATP solid was diluted into folding buffer to a final concentration of 2.5 mM. Quench solution contained 600 mM EDTA (pH 8.0). The MDH enzymatic assay stock consisted of 20 mM sodium mesoxalate and 2.4 mM NADH in reaction buffer (50 mM Tris-HCl, pH 7.4, 50 mM KCl, and 1 mM DTT).
Assay Protocol: First, 30 μL aliquots of the GroEL/ES-dMDH or HSP60/10-dMDH binary complex stocks were dispensed into clear, 384-well polystyrene plates. […] The chaperonin-mediated refolding cycles were initiated by addition of 20 μL of ATP stock (reagent concentrations during refolding cycle: 50 nM GroEL or HSP60, 60 nM GroES or HSP10, 12 nM dMDH, 1 mM ATP, and compounds of 100 μM to 46 nM, 3-fold dilution series). The refolding reactions were incubated at 37° C. […] Next, the assay was quenched by addition of 10 μL of the EDTA to final concentration of 100 mM. […] A340 nm measurements were recorded at 0.5 minutes (start point) and at successive time points until the amount of NADH consumed reached ˜90% (end point, generally between 20-35 minutes). The differences between the start and end point A340 values were used to calculate the % inhibition of the GroEL/ES or HSP60/10 machinery by the compounds. […] Results presented represent the averages of IC50 values obtained from at least quadriplicate (duplicate of duplicate) replicates.
as §1

[3] = read-out: Biochemical Assay IC50 GroEL/ES-dRho Refolding
[4] = read-out: Biochemical Assay IC50 GroEL/ES-dMDH refolding

T1 sequence (P0A6F5 2-548): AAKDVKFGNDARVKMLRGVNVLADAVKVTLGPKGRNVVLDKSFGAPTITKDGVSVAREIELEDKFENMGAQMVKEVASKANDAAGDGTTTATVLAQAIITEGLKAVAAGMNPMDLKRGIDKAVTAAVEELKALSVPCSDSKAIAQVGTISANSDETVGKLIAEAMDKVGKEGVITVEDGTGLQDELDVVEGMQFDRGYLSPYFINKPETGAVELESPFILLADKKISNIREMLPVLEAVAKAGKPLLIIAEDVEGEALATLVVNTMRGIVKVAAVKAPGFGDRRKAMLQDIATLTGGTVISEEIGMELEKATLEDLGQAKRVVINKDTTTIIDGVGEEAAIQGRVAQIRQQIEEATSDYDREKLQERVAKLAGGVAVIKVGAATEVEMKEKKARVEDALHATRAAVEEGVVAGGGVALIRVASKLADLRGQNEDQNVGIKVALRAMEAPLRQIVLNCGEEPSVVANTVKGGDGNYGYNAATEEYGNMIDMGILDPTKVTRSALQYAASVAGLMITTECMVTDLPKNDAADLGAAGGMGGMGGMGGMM

SMILES | IC50 (E. coli GroEL/ES [1]) | pIC50 (E. coli GroEL/ES [1]; [3]) | log(IC50) GroEL/ES-dMDH Refolding (E. coli GroEL/ES [2]) | pIC50 (E. coli GroEL/ES [2]; [4]) | inhibition in the GroEL/ES-mediated refolding assays (in words) (E. coli GroEL/ES [2]) | log(IC50) GroEL/ES-dRho Refolding (E. coli GroEL/ES [1]) | pIC50 (E. coli GroEL/ES [1]) | pIC50 (E. coli GroEL/ES [2]) | selectivity for E. coli GroEL/ES over human HSP60/10 (in words) (E. coli GroEL/ES [2]; GroEL/ES-dMDH vs HSP60/10-dMDH IC50)
O=C(Nc1ccc(Sc2nc3ccccc3s2)c(Cl)c1)c1cc(Br)cc(Br)c1O [Compound 1, N-(4-(Benzo[d]thiazol-2-ylthio)-3-chlorophenyl)-3,5-dibromo-2-hydroxybenzamide] | 1.55 µM | 5.82 | 0.23 ± 0.28 | 5.77 | – | – | – | – | –
O=C(Nc1ccc(Sc2nc3ccccc3s2)cc1)c1cccc(Br)c1O [Compound 6, N-(4-(Benzo[d]thiazol-2-ylthio)phenyl)-3-bromo-2-hydroxybenzamide] | 13.8 µM | 4.85 | 1.52 ± 0.21 | 4.48 | moderate to potent inhibitors | – | – | – | –
O=C(Nc1ccccc1)c1ccccc1O [Compound 16, 2-Hydroxy-N-phenylbenzamide] | – | < 4.00 | >2 | < 4.00 | – | >2 | – | – | –
O=C(Nc1ccccc1)c1cc(Br)ccc1O [Compound 15, 5-Bromo-2-hydroxy-N-phenylbenzamide] | – | – | >2 | – | – | >2 | < 4.00 | < 4.00 | –
COc1ccc(Br)cc1C(=O)Nc1ccc(Sc2nc3ccccc3s2)cc1 [Compound 35, N-(4-(Benzo[d]thiazol-2-ylthio)phenyl)-5-bromo-2-methoxybenzamide] | – | – | – | – | – | – | < 4.00 | < 4.00 | –
O=C(Nc1ccc(Sc2nc3ccccc3s2)cc1)c1cccc(Br)c1 [Compound 21, N-(4-(Benzo[d]thiazol-2-ylthio)phenyl)-3-bromobenzamide] | – | – | – | – | – | – | < 4.00 | < 4.00 | –
COc1c(Br)cc(Br)cc1C(=O)Nc1cccc(Cl)c1 [Compound 37, 3,5-Dibromo-N-(3-chlorophenyl)-2-methoxybenzamide] | – | – | >2 | – | – | >2 | < 4.00 | < 4.00 | –
COc1ccc(Br)cc1C(=O)Nc1ccc(Sc2nc3ccccc3s2)c(Cl)c1 [Compound 31, N-(4-(Benzo[d]thiazol-2-ylthio)-3-chlorophenyl)-5-bromo-2-methoxybenzamide] | – | – | – | – | – | – | < 4.00 | < 4.00 | –
O=C(Nc1cccc(Cl)c1)c1cccc(Br)c1 [Compound 24, 3-Bromo-N-(3-chlorophenyl)benzamide] | – | – | >2 | – | – | >2 | < 4.00 | < 4.00 | –
COc1ccccc1C(=O)Nc1ccc(Sc2nc3ccccc3s2)cc1 [Compound 36, N-(4-(Benzo[d]thiazol-2-ylthio)phenyl)-2-methoxybenzamide] | – | – | – | – | – | – | < 4.00 | < 4.00 | –
COc1c(Br)cc(Br)cc1C(=O)Nc1ccccc1 [Compound 41, 3,5-Dibromo-2-methoxy-N-phenylbenzamide] | – | – | >2 | – | – | >2 | < 4.00 | < 4.00 | –
O=C(Nc1cccc(Cl)c1)c1ccccc1 [Compound 25, N-(3-Chlorophenyl)benzamide] | – | – | >2 | – | – | >2 | < 4.00 | < 4.00 | –
COc1c(Br)cccc1C(=O)Nc1cccc(Cl)c1 [Compound 38] | – | – | >2 | – | – | >2 | < 4.00 | < 4.00 | –
O=C(Nc1ccc(Sc2nc3ccccc3s2)c(Cl)c1)c1cc(Br)ccc1O [Compound 3, N-(4-(Benzo[d]thiazol-2-ylthio)-3-chlorophenyl)-5-bromo-2-hydroxybenzamide] | – | 4.96 | 1.57 ± 0.35 | 4.43 | moderate to potent inhibitors | 1.04 ± 0.38 | – | – | selectively inhibit E. coli GroEUES over human HSP60/10
O=C(Nc1ccc(Sc2nc3ccccc3s2)c(Cl)c1)c1cccc(Br)c1O [Compound 2, N-(4-(Benzo[d]thiazol-2-ylthio)-3-chlorophenyl)-3-bromo-2-hydroxybenzamide] | – | 5.42 | 0.98 ± 0.23 | 5.02 | moderate to potent inhibitors | 0.58 ± 0.15 | – | – | –
COc1c(Br)cccc1C(=O)Nc1ccc(Sc2nc3ccccc3s2)c(Cl)c1 [Compound 30, N-(4-(Benzo[d]thiazol-2-ylthio)-3-chlorophenyl)-3-bromo-2-methoxybenzamide] | – | – | – | – | – | – | < 4.00 | < 4.00 | –
O=C(Nc1ccc(Sc2nc3ccccc3s2)cc1)c1cc(Br)cc(Br)c1O [Compound 5, N-(4-(Benzo[d]thiazol-2-ylthio)phenyl)-3,5-dibromo-2-hydroxybenzamide] | 1.32 µM | 5.89 | 0.43 ± 0.19 | 5.57 | – | – | – | – | –
O=C(Nc1ccc(Sc2nc3ccccc3s2)cc1)c1ccccc1 [Compound 22, N-(4-(Benzo[d]thiazol-2-ylthio)phenyl)benzamide] | – | – | – | – | – | – | < 4.00 | < 4.00 | –
CC1(C)S[C@@H]2[C@H](NC(=O)[C@H](N)c3ccccc3)C(=O)N2[C@H]1C(=O)O [Ampicillin, ampicillin, reference compound] | – | < 4.00 | >2 | < 4.00 | – | >2 | – | – | –
COc1ccc(Br)cc1C(=O)Nc1ccccc1 [Compound 43, 5-Bromo-2-methoxy-N-phenylbenzamide] | – | – | >2 | – | – | >2 | < 4.00 | < 4.00 | –
